Test results: ChEMBL document CHEMBL4800732, “Data for DCP probe TP-040” (2021); call rule not given here
pKi: −log10 of the molar value. “And” between values parts separate entries of the source, which are not always exact repeats. Identical values can stand only once. Each block holds one compound with its values, some of them ahead of it.

Key:
[1] = target: T1, Sigma intracellular receptor 2 (Homo sapiens, UniProt Q5BJF2); settings: Compound concentration 10.0 uM
[2] = target: T2, 5-hydroxytryptamine receptor 6 (Homo sapiens, UniProt P50406); test: GPCRScan assay: inhibition of 5-HT6; set-up: radioligand conc. used [nm] 2.0 – 4.0, parental cells stable HEK
T2 sequence (P50406 whole entry): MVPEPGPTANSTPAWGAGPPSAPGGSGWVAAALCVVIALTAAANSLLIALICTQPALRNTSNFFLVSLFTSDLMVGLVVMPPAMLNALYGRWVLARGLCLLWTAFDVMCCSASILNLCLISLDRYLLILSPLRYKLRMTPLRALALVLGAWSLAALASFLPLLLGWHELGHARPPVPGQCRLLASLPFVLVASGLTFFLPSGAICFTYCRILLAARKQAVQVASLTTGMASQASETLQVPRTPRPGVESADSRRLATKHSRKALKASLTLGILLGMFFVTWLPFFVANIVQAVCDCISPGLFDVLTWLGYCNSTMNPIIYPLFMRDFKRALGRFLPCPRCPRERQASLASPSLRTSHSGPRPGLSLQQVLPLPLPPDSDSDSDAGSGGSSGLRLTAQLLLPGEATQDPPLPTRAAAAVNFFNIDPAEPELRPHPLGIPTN

Histamine H2 receptor [3] = target: T3, Histamine H2 receptor (Homo sapiens, UniProt P25021); test: GPCRScan assay: inhibition of H2; set-up: radioligand conc. used [nm] 0.02 – 0.05, parental cells Stable HEK
T3 sequence (P25021 whole entry): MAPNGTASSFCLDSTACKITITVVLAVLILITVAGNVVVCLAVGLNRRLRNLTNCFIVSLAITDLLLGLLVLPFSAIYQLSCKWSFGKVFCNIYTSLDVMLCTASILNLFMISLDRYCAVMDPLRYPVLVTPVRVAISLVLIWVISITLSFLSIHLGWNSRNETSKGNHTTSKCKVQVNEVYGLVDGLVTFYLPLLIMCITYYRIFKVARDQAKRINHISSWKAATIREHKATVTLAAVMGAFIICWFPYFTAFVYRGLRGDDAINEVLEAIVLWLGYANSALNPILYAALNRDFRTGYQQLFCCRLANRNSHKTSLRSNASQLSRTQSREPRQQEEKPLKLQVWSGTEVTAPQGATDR

[4] = target: 5-hydroxytryptamine receptor 7 (Homo sapiens, UniProt P34969); test: GPCRScan assay: inhibition of 5-HT7A; set-up: radioligand conc. used [nm] 5.0 – 6.0, parental cells Stable HEK
Histamine H4 receptor [5] = target: T4, Histamine H4 receptor (Homo sapiens, UniProt Q9H3N8); settings: Compound concentration 10.0 uM
[6] = target: T5, Sigma non-opioid intracellular receptor 1 (Homo sapiens, UniProt Q99720); settings: Compound concentration 10.0 uM
T5 sequence (Q99720 whole entry): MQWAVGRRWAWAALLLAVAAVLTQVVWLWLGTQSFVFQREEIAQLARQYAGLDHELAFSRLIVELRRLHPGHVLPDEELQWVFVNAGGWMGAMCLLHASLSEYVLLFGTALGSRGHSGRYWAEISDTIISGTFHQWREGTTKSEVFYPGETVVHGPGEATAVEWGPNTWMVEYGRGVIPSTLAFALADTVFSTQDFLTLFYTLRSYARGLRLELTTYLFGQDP

[7] = target: Sodium-dependent serotonin transporter (Homo sapiens) (UniProt P31645); settings: Compound concentration 10.0 uM
[8] = target: T5, Sigma non-opioid intracellular receptor 1; test: GPCRScan assay: inhibition of Sigma 1; set-up: radioligand conc. used [nm] 4.0 – 5.0, parental cells HEKT
[9] = target: Alpha-1A adrenergic receptor (Homo sapiens) (UniProt P35348); settings: Compound concentration 10.0 uM
Histamine H4 receptor [10] = target: T4, Histamine H4 receptor; test: GPCRScan assay: inhibition of H4; set-up: radioligand conc. used [nm] 1.0 – 5.0, parental cells HEK T
Protein O-GlcNAcase = Protein O-GlcNAcase (Homo sapiens, UniProt O60502); test: Enzymatic OGA assay
[11] = target: T1, Sigma intracellular receptor 2; test: GPCRScan assay: inhibition of Sigma 2; set-up: radioligand conc. used [nm] 5.0, parental cells HEKT
[12] = target: D(3) dopamine receptor (Homo sapiens) (UniProt P35462); settings: Compound concentration 10.0 uM
[13] = target: T6, 5-hydroxytryptamine receptor 2A (Homo sapiens, UniProt P28223); test: GPCRScan assay: inhibition of 5-HT2A; set-up: radioligand conc. used [nm] 1.2 – 2.4, parental cells HEKT
T6 sequence (P28223 whole entry): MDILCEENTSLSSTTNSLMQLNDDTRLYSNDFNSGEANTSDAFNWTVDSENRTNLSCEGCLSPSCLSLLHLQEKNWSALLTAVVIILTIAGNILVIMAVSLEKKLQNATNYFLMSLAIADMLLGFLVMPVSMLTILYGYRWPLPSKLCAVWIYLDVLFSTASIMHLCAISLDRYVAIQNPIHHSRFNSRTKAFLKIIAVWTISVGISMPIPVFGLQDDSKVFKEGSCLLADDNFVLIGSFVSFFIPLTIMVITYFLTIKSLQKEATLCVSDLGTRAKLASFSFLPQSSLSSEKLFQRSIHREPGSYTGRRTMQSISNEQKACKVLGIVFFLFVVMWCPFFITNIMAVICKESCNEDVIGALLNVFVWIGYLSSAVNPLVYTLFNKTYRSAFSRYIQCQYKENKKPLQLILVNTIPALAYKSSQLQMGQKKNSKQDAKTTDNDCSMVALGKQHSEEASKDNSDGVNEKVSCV

[14] = target: Alpha-2C adrenergic receptor (Homo sapiens) (UniProt P18825); settings: Compound concentration 10.0 uM
Alpha-2C adrenergic receptor (Homo sapiens), sequence (P18825 whole entry): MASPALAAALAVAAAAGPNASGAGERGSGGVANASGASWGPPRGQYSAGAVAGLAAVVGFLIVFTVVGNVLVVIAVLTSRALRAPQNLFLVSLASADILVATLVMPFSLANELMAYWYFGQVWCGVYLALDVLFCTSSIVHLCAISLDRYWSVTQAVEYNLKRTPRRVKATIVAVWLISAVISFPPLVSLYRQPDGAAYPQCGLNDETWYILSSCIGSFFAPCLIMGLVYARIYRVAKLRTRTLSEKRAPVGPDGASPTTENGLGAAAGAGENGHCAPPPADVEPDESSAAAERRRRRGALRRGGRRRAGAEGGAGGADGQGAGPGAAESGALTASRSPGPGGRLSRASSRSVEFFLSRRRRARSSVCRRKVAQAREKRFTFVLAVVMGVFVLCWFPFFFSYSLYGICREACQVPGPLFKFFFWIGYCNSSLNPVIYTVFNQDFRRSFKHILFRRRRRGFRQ

Histamine H3 receptor = Histamine H3 receptor (Homo sapiens, UniProt Q9Y5N1); test: GPCRScan assay: inhibition of H3; set-up: radioligand conc. used [nm] 0.5 – 1.0, parental cells HEK Flp-In
Histamine H3 receptor, sequence (Q9Y5N1 whole entry): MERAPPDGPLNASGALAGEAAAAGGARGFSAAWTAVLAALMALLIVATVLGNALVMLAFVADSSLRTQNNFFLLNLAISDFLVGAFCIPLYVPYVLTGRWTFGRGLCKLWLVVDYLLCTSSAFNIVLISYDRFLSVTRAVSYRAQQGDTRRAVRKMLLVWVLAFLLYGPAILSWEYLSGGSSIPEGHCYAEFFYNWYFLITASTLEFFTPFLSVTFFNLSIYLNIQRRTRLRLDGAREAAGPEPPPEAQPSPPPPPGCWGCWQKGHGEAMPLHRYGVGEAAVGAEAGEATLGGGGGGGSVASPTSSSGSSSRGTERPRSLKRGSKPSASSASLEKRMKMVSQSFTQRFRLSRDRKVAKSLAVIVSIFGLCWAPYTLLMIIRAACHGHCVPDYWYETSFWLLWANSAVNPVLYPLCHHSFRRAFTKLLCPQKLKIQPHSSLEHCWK

[15] = target: T6, 5-hydroxytryptamine receptor 2A; settings: Compound concentration 10.0 uM
[16] = target: D(4) dopamine receptor (Homo sapiens) (UniProt P21917); settings: Compound concentration 10.0 uM
[17] = target: Beta-3 adrenergic receptor (Homo sapiens) (UniProt P13945); settings: Compound concentration 10.0 uM
[18] = target: Mu-type opioid receptor (Homo sapiens) (UniProt P35372); settings: Compound concentration 10.0 uM
[19] = target: Muscarinic acetylcholine receptor M2 (Homo sapiens) (UniProt P08172); settings: Compound concentration 10.0 uM
[20] = target: 5-hydroxytryptamine receptor 2B (Homo sapiens, UniProt P41595); settings: Compound concentration 10.0 uM
[21] = target: 5-hydroxytryptamine receptor 3A (Homo sapiens) (UniProt P46098); settings: Compound concentration 10.0 uM
5-hydroxytryptamine receptor 3A (Homo sapiens), sequence (P46098 whole entry): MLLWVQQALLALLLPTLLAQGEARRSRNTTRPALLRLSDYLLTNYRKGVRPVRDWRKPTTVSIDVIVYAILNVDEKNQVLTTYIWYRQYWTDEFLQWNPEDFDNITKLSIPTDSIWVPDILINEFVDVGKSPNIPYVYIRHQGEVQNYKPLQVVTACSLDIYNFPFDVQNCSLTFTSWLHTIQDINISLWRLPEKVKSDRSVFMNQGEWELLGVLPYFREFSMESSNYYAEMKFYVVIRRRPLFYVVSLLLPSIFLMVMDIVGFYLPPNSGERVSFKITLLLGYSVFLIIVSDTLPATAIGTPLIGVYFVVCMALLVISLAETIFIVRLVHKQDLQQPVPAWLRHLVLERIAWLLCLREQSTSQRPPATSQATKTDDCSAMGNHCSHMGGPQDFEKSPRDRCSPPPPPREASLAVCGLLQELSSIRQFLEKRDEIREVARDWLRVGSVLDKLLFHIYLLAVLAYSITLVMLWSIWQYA

[22] = target: 5-hydroxytryptamine receptor 5A (Homo sapiens, UniProt P47898); test: GPCRScan assay: inhibition of 5-HT5A; set-up: radioligand conc. used [nm] 2.0 - 3.3, parental cells Flp-In CHO
Histamine H2 receptor [23] = target: T3, Histamine H2 receptor; settings: Compound concentration 10.0 uM
[24] = target: Alpha-1B adrenergic receptor (Homo sapiens) (UniProt P35368); settings: Compound concentration 10.0 uM
Alpha-1B adrenergic receptor (Homo sapiens), sequence (P35368 whole entry): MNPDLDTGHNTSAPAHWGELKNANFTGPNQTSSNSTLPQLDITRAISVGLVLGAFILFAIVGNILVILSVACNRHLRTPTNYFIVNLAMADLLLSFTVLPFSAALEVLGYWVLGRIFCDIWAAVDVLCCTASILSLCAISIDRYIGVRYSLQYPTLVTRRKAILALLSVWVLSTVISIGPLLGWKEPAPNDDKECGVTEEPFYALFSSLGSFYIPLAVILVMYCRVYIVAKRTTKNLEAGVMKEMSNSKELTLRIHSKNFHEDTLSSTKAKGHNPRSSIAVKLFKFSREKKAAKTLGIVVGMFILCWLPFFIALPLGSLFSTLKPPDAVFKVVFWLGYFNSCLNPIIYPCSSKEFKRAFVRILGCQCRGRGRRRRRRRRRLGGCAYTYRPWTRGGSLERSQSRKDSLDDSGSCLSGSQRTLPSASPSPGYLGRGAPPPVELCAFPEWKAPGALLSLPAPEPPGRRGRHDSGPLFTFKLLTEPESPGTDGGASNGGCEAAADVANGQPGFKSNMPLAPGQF

[25] = target: GABA-A receptor; anion channel (Rattus norvegicus) (UniProt O09028+P15431+P18506+P18508+P19969+P20236+P23574+P23576+P28471+P28473+P30191+P62813+P63079+P63138+Q91ZM7+Q9ES14); settings: Compound concentration 10.0 uM
[26] = target: 5-hydroxytryptamine receptor 1D (Homo sapiens, UniProt P28221); test: GPCRScan assay: inhibition of 5-HT1D; set-up: radioligand conc. used [nm] 1.0 – 2.0, parental cells HEKT; settings: for pKi: read-out: Ki; for Ki: read-out: pKi (converted)
5-hydroxytryptamine receptor 1D, sequence (P28221 whole entry): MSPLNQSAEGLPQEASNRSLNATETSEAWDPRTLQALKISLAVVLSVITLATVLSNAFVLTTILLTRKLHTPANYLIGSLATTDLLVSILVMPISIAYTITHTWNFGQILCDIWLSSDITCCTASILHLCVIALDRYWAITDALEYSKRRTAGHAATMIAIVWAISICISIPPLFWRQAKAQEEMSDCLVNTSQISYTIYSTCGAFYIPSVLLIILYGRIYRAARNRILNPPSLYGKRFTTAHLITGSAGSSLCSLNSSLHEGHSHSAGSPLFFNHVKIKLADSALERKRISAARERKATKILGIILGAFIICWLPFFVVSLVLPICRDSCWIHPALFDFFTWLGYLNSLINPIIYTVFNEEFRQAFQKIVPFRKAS

[27] = target: T2, 5-hydroxytryptamine receptor 6; settings: Compound concentration 10.0 uM
[28] = target: Kappa-type opioid receptor (Homo sapiens) (UniProt P41145); settings: Compound concentration 10.0 uM
[29] = target: Muscarinic acetylcholine receptor M3 (Homo sapiens) (UniProt P20309); settings: Compound concentration 10.0 uM
[30] = target: D(1A) dopamine receptor (Homo sapiens) (UniProt P21728); settings: Compound concentration 10.0 uM
D(1A) dopamine receptor (Homo sapiens), sequence (P21728 whole entry): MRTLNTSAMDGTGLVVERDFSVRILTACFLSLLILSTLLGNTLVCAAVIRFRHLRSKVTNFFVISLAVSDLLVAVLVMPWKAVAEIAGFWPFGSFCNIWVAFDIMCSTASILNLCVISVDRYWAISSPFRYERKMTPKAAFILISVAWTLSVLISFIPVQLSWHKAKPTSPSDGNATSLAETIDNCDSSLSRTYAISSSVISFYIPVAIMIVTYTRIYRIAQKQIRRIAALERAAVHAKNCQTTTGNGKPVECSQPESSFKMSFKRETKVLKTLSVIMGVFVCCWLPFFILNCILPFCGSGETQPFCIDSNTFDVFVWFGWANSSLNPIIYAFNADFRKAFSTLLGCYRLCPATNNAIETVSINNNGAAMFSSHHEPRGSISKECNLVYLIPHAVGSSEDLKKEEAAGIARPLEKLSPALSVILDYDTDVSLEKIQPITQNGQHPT

[31] = target: D(2) dopamine receptor (Homo sapiens) (UniProt P14416); settings: Compound concentration 10.0 uM
[32] = target: Sodium-dependent dopamine transporter (Homo sapiens, UniProt Q01959); test: GPCRScan assay: inhibition of DAT; set-up: radioligand conc. used [nm] 3.6 – 16.0, parental cells stable HEK
[33] = target: Beta-2 adrenergic receptor (Homo sapiens) (UniProt P07550); settings: Compound concentration 10.0 uM
Beta-2 adrenergic receptor (Homo sapiens), sequence (P07550 whole entry, looked up): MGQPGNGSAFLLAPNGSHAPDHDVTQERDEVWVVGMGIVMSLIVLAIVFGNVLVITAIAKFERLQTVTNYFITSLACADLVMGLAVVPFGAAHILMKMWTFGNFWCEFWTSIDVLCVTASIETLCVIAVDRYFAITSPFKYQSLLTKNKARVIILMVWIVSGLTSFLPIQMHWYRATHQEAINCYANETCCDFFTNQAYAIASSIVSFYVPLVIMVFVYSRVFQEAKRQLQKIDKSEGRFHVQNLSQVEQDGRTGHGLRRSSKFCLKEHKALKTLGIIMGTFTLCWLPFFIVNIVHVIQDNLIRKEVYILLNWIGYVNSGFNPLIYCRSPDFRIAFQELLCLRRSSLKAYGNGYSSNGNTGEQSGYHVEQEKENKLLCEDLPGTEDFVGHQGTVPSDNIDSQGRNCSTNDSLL

[34] = target: D(1B) dopamine receptor (Homo sapiens) (UniProt P21918); settings: Compound concentration 10.0 uM
[35] = target: Beta-hexosaminidase subunit beta (Homo sapiens, UniProt P07686); test: Enzymatic HEXB assay
[36] = target: GABA-A receptor; anion channel; test: GPCRScan assay: inhibition of GABAA/BZP; type: protein-complex assay, Rattus norvegicus; set-up: radioligand conc. used [nm] 0.6 – 4.0, parental cells brain tissue

T1 sequence (Q5BJF2 whole entry): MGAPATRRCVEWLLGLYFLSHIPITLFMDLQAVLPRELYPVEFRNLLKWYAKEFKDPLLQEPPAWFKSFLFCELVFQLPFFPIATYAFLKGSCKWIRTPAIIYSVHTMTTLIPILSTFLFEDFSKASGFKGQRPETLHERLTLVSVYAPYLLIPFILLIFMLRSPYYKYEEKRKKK

inhibition [1]: 77.2% | pKi [2]: 6.22 | pKi (Histamine H2 receptor [3]; read-out: Ki): 6.83 | Ki (Histamine H2 receptor [3]; read-out: pKi (converted)): 145 nM | pKi [4]: 6.48 | inhibition (Histamine H4 receptor [5]): 82.8% | inhibition [6]: 98.8% | inhibition [7]: 35.8% | pKi ([8]; read-out: Ki): 6.90 | Ki ([8]; read-out: pKi (converted)): 123 nM | inhibition [9]: 19.2% | pKi (Histamine H4 receptor [10]; read-out: Ki): 6.15 | Ki (Histamine H4 receptor [10]; read-out: pKi (converted)): 692 nM | IC50 (Protein O-GlcNAcase): > 10000 nM (not active) | pKi ([11]; read-out: Ki): 5.83 | Ki ([11]; read-out: pKi (converted)): 1450 nM | inhibition [12]: 22.6% | pKi ([13]; read-out: Ki): 6.12 | Ki ([13]; read-out: pKi (converted)): 692 nM | inhibition [14]: 96.8% | pKi (Histamine H3 receptor; read-out: Ki): 7.03 and 7.00 | Ki (Histamine H3 receptor; read-out: pKi (converted)): 81.3 nM | inhibition [15]: 72.9% | inhibition [16]: 13% | inhibition [17]: 2.45% | inhibition [18]: 25.9% | inhibition [19]: -1.51% | inhibition [20]: 91.7% | inhibition [21]: 22.4% | pKi ([22]; read-out: Ki): 5.21 | Ki ([22]; read-out: pKi (converted)): 5130 nM | inhibition (Histamine H2 receptor [23]): 95.6% | inhibition [24]: 22.1% | inhibition [25]: 34.6% | pKi [26]: 5.69 | Ki [26]: 1820 nM | inhibition [27]: 80.4% | inhibition [28]: 23.7% | inhibition [29]: -3.28% | inhibition [30]: 26.5% | inhibition [31]: 20.6% | pKi ([32]; read-out: Ki): 6.06 | Ki ([32]; read-out: pKi (converted)): 832 nM | inhibition [33]: -3.49%
SMILES: CN1CCN(c2ccnc(NCCc3ccccc3)n2)CC1 [TP-040n]

inhibition [1]: 33.6% | inhibition [6]: 36.6% | inhibition [7]: 5.83% | inhibition [9]: 15.4% | inhibition [12]: 47% | inhibition [34]: 5.03% | inhibition [14]: 51.8% | inhibition [15]: 33.8% | inhibition [16]: 3.89% | inhibition [18]: 10.8% | inhibition [19]: 7.21% | inhibition [20]: 81.8% | inhibition [21]: 27.7% | inhibition (Histamine H2 receptor [23]): 28.6% | inhibition [24]: -5.62% | inhibition [25]: 2.33% | pKi [26]: 6.38 | Ki [26]: 631 nM | inhibition [27]: 32.1% | inhibition [28]: 36.6% | inhibition [29]: 7.48% | inhibition [30]: -8.84% | IC50 [35]: > 10000 nM (not active) | pKi [36]: 6.29 | inhibition [31]: 4.96% | inhibition [33]: -3.61%
SMILES: CC1CCN(c2ccnc(NCc3cn(C)cn3)n2)CC1 [TP-040]
